Series [1] is described as follows: Antioxidant activity assessed as DPPH radical scavenging activity incubated for 30 mins. In kind it is physicochemical. The conditions noted are these: 0.5 h.
For series [2], the target named is Delta-type opioid receptor (Mus musculus, UniProt P32300). The series can be described thus: Agonist activity at delta opioid receptor in albino mouse vas deferens assessed as inhibition of electrically-stimulated muscle contraction. In kind it is tissue-based.
Delta-type opioid receptor, sequence (P32300 whole entry): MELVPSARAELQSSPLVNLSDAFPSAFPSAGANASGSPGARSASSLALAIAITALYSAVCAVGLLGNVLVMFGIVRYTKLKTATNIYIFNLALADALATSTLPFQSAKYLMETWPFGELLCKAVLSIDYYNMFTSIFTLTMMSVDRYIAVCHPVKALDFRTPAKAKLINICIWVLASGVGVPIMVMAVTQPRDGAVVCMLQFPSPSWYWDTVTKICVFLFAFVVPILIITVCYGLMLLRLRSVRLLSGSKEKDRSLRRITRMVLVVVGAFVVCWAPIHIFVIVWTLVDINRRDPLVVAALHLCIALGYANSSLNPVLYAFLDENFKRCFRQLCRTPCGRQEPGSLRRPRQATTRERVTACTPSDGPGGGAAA

In the case of `Cc1cc(O)cc(C)c1C[C@H](N)C(=O)N[C@H](CCCNC(=N)N)C(=O)N[C@@H](Cc1ccccc1)C(=O)N[C@@H](CCCCN)C(N)=O`, the Activity in series [1] came out at 31.64%.
Broadly, the IC50 is the concentration that inhibits the measured activity by half. With `NCCCC[C@H](NC(=O)[C@H](Cc1ccccc1)NC(=O)[C@@H](CCCN=C(N)N)NC(=O)[C@@H](N)Cc1ccc(O)cc1)C(N)=O`, the IC50 in series [2] was 0.781 µM.
